{"source": "patent US8734837B2", "about": "“Enhancement of development of oviparous species by in ovo feeding of enteric modulators” (North Carolina State University, priority 2000, dated 2014)", "type_in_all_cases": "in vivo", "key": {"[1]": {"assay": "Plasma glucose of turkey poults by HMB dosage injected in ovo (Example 10, FIG. 8)", "details": "turkey poults at hatch", "procedure": "(§1) Three hundred commercial turkey eggs were stored for three weeks in a cooler at 55° F. and then placed in an egg incubator. After 24 days of incubation, eggs identified as fertile by candling the eggs were randomly assigned to 5 groups of 50 eggs. Each group of 50 eggs was then injected into the air cell at a depth of 0.25 inches with a 0.10 ml saline (0.89% NaCl) solution containing 0, 0.1, 1.0, 10.0, and 100.0 milligrams of Ca-HMB.\n(§2) After injection, the eggs were placed in hatching baskets such that each treatment was equally represented in each location of the incubator. Hatched poults were recovered from the incubator at 28 days of incubation and the number of hatched poults per treatment group recorded. The hatched poults were then sacrificed and blood glucose was determined in accordance with known techniques (see Donaldson and Christensen, Comp. Biochem. Physiol. 98A, 347-350 (1991)). Livers were removed and glycogen content of each liver was determined by known techniques (see Dreiling et al., Meat Sci. 20, 167-177 (1987))."}, "[2]": {"assay": "Hatchability rate of turkey poults by HMB dosage injected in ovo (Example 10, FIG. 6)", "procedure": "as §1, §2"}, "[3]": {"assay": "Liver glycogen of turkey poults by HMB dosage injected in ovo (Example 10, FIG. 7)", "details": "turkey poults at hatch; all HMB dosage levels (0.1-100.0 milligrams)", "procedure": "as §1, §2"}}}
{"smiles": "CC(C)(O)CC(=O)O", "note": "[HMB, beta-hydroxy-beta-methylbutyrate]", "values": [{"measurement": "Plasma glucose concentration (in words)", "setting": "[1]; 0.1 milligram HMB dosage", "value": "significantly increased plasma glucose concentration"}, {"measurement": "Plasma glucose concentration (in words)", "setting": "[1]; other HMB dosage levels (1.0, 10.0, 100.0 milligrams)", "value": "no significant effect on plasma glucose"}, {"measurement": "Hatchability rate", "setting": "[2]; turkey eggs stored 3 weeks, 0.1 and 1.0 milligrams HMB in 0.1 ml saline into air cell at 24 days of incubation, control 72.3%", "value": 81.6, "unit": "%"}, {"measurement": "Hatchability rate (in words)", "setting": "[2]; turkey eggs, HMB injected above 1.0 milligrams", "value": "hatchability rate decreased"}, {"measurement": "Liver glycogen content, increase compared with the control treatment", "setting": "[3]", "value": "about 40%"}]}
